The nature of data set [1]: In vivo pharmacokinetics in rats after IV or PO administration. The arrangement: species or system Sprague Dawley (SD) male rats. As to conditions: male, Sprague Dawley, rat, oral 5 mg/kg, measured as 2d form in plasma. The protocol:
For in vivo pharmacokinetic studies, Sprague Dawley (SD) male rats (weighing 270–280 g) were purchased from Orient Bio Inc. (Seongnam, Korea). Experimental protocols involving animal use were carefully reviewed and approved by the Institutional Animal Care and Use Committee at Gachon University. Prior to studies, animals fasted for 18 h, but with free access to water. Compound 5d or 2d was dissolved in a dosing vehicle consisting of PEG400, normal saline, and dimethylsulfoxide in a ratio of 6:3:1 (v/v/v%) to make a 2 mg/mL dosing solution. […]
To determine drug concentration levels in plasma, the Agilent 1290 UHPLC-DAD system with Polar RP column (3 μm, 150 mm × 2 mm ID., Phenomenex) was used for chromatographic separations. […] The total run time was 4.4 min for samples which were monitored at 260 nm. […]
(§1) The EC50 values for luciferase reporter assay were calculated based on a logistic four-parametric equation using the mean values of intrinsic activation (SigmaPlot 10.0; Systat Software Inc., San Jose, CA, USA). The IC50 and t1/2 values for the cytochrome P450 inhibition assay and metabolic stability test were calculated by WinNonlin software (Pharsight, Mountain View, CA, USA). Pharmacokinetic parameters were calculated using non-compartmental analysis (WinNonlin v.8.3; Pharsight, Mountain View, CA, USA). […]

The target in data set [2] is T1, hCRY1 (Homo sapiens, UniProt Q16526).
T1 sequence (Q16526 1-586): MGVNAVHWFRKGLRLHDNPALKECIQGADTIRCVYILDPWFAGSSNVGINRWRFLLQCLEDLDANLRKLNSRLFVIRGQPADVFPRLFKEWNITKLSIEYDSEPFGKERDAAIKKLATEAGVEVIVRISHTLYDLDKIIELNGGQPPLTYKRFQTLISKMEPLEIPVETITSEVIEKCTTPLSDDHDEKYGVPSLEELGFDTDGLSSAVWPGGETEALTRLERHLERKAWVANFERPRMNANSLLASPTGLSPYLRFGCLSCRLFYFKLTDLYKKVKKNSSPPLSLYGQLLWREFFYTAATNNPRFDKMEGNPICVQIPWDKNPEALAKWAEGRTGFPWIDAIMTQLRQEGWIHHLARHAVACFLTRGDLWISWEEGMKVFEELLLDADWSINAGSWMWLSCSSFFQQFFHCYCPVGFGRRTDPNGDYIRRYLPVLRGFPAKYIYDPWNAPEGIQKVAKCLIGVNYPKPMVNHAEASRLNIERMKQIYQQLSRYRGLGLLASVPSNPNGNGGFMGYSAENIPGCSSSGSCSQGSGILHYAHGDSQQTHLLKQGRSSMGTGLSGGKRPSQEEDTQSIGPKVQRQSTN
The experiment in a line: Surface plasmon resonance, CRY1. Format: binding. The arrangement: GST; purchased MyBioSource; host or cells: baculovirus expression system. As to conditions: SPR, His-tagged CRY1, Langmuir 1:1 model. The protocol: We used a ProteOn XPR36 system (Bio-Rad, Hercules, CA, USA) equipped with a HTE sensor chip (high capacity tris-NTA for histidine-tagged […] capture, Bio-Rad) for surface plasmon resonance analyses. Purified target proteins (6xHis- and GST-tagged hCRY1 and hCRY2) were prepared by a baculovirus expression system (MyBioSource, San Diego, CA, USA). Phosphate buffered saline (PBS) plus 0.005% Tween 20 was used as the running buffer. The 6xHis-hCRY1 and 6xHis-hCRY2 proteins were immobilized onto separate channels of a HTE chip by injecting 210 μL protein sample (2.0 μg/mL) into flow cells (30 μL/min) to allow saturation. Serially diluted compound 2d samples (50–800 μM) were prepared in 4% DMSO in TBS-T buffer. […] Recorded resonance units (RU) were normalized and plotted against chemical concentration. […]
as §1
(Surface plasmon resonance follows binding to a sensor surface in real time, without labels.)

The term half-life denotes the time needed for the level to fall by half in the phase considered. The low end stands for fast loss, the high end for slow loss. By Kd is commonly meant the free concentration of one partner at which half of the binding sites on the other are occupied at equilibrium, for simple one-to-one binding. A higher Kd goes with lower affinity.

Compound `CC(=NOCc1ccc([N+](=O)[O-])cc1)c1cccc(OCC(=O)O)c1` [Compound 2d, 2-(3-(1-(((4-nitrobenzyl)oxy)imino)ethyl)phenoxy)acetic acid] showed a half-life in data set [1] of 6.52 ± 0.793 h. Further, in data set [1] (read-out: AUCinfinite (converted)), the AUC was 184 µg·h/mL. The compound also showed a Kd in data set [2] of 389 µM.

The values above are taken from PMC8225008, “Development of Non-Ethoxypropanoic Acid Type Cryptochrome Inhibitors with Circadian Molecular Clock-Enhancing Activity by Bioisosteric Replacement” (Pharmaceuticals, 2021).
